Where a name gives a salt, the structure may show the parent alone.

In this experiment the target is T1, human LCE (Homo sapiens, UniProt Q9H5J4).
T1 sequence (Q9H5J4 1-265): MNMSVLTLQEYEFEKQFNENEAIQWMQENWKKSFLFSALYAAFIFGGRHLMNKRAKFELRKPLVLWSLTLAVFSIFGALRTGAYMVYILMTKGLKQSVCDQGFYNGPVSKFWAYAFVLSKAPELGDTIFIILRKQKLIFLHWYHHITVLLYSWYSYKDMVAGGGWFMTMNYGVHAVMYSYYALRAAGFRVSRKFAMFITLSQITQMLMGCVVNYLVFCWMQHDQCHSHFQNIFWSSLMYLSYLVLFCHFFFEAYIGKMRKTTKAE
As to the kind of experiment: LCE enzyme activity-inhibitory test. It counts as biochemical. The settings on record: [14C]-malonyl CoA / palmitoyl CoA substrate, 37° C., 90 minutes. How it is done:
Pharmacological Test Example 1 (LCE Enzyme Activity-inhibitory Test)
A test compound was dissolved in dimethyl sulfoxide (DMSO to be 10 mM), and then diluted with DMSO to prepare a 1000-fold concentrated solution of the test concentration. An improved Moon et al's method (J. Biol. Chem., Vol. 276, pp. 45358-45366, 2001) was employed for the LCE enzyme activity-inhibitor test. Concretely, the diluted compound was applied to a 96-well assay plate (Corning, 96-well assay block) in an amount of 1.0 μL/well; 50 μL of a phosphate buffer solution (100 mM potassium phosphate buffer, pH 6.5), and 25 μL of a substrate solution (100 mM potassium phosphate buffer (pH 6.5), 4.0 μM rotenone, 80 μM fatty acid-free bovine serum albumin, 160 μM palmitoyl CoA, 80 μM malonyl CoA, 3.5 μM [^14C]-malonyl CoA (1.92 GBq/mmol, by Amersham)) were added to each well; 25 μL of an enzyme solution (100 mM potassium phosphate buffer (pH 6.5), 100 μg/mL human LCE) was added thereto; the top of the plate was airtightly sealed up; and this was incubated with gently shaking and stirring at 37° C. for 90 minutes. Next, 100 μL of 5 M hydrochloric acid was added to each well, and the assay plate was stirred at room temperature for 5 minutes to stop the enzyme reaction with hydrolyzing the acyl CoA. Next, the enzyme reaction solution in each well was adsorbed by each well of a 96-well GF/C filter plate (Perkin Elmer Unifilter 96 GF/C); the individual wells were washed with water to remove the non-adsorbed malonyl CoA; and the GF/C filter plate was dried at 50° C. for 60 minutes. Next, 30 μL of a scintillator (Perkin Elmer Microscinti 0) was added to each well; then the top of the plate was sealed up; and the fixed [^14C] radioactivity was measured with a microplate scintillation counter (Perkin Elmer TopCount) to be the enzyme activity. The human LCE enzyme-inhibitory activity of the test compound was calculated, based on the radioactivity of the DMSO-added well with no test compound therein as a control.
`COc1cccnc1NC(=O)c1cccc(S(=O)(=O)N2CCCC(C(=O)NCc3ccccc3)C2)c1` (centres unmarked) [Example 61, N-benzyl-1-[(3-{[(3-methoxypyridin-2-yl)amino]carbonyl}phenyl)sulfonyl]piperidine-3-carboxamide]: the half-maximal inhibitory concentration (IC50) is 54 nM.
Under `CC(C)c1ccc(NC(=O)c2cccc(S(=O)(=O)NC3CCCCC3)c2)cc1` [Example 38, 3-[(Cyclohexylamino)sulfonyl]-N-(4-isopropylphenyl)benzamide] stands 1000 nM.
`COc1cccnc1NC(=O)c1cccc(S(=O)(=O)N2CCCC(C(=O)O)C2)c1` (centres unmarked) [Example 56, 1-[(3-{[(3-Methoxypyridin-2-yl)amino]carbonyl}phenyl)sulfonyl]piperidine-3-carboxylic acid] yielded an IC50 of 3200 nM.
As to `O=C(NC1CCc2ccccc21)c1cccc(S(=O)(=O)N2CCCCC2)c1` (centres unmarked) [Example 85, N-(2,3-dihydro-1H-inden-1-yl)-3-(piperidin-1-ylsulfonyl)benzamide], the 50% inhibitory concentration (IC50) came to 6000 nM.
As to `CC(C)Oc1ccc(NC(=O)c2cccc(S(=O)(=O)N3CCN4CCCCC4C3)c2)cc1` (centres unmarked) [Example 13, N-(4-Isopropoxyphenyl)-3-(octahydro-2H-pyrido[1,2-a]pyrazin-2-ylsulfonyl)benzamide trifluoroacetate], the 50% inhibitory concentration (IC50) was determined as 5200 nM.
With `CC(C)Oc1ccc(NC(=O)c2cccc(S(=O)(=O)N3CCCC(c4nncn4C)C3)c2)cc1` (centres unmarked) [Example 11, N-(4-isopropoxyphenyl)-3-{[3-(4-methyl-4H-1,2,4-triazol-3-yl)piperidin-1-yl]sulfonyl}benzamide trifluoroacetate] the figure was 1000 nM; with `CC(C)Oc1ccc(NC(=O)c2cccc(S(=O)(=O)c3cccnc3)c2)cc1` [Example 130, N-(4-isopropoxyphenyl)-3-(pyridin-3-ylsulfonyl)benzamide], 1500 nM; with `COc1cc(Oc2ccccc2)cnc1NC(=O)c1cccc(S(=O)(=O)N2CCCC2)c1` [Example 110, N-(3-methoxy-5-phenoxypyridin-2-yl)-3-(pyrrolidin-1-ylsulfonyl)benzamide], 210 nM.
With `CC(C)Oc1cc(NC(=O)c2cccc(S(=O)(=O)N3CCCC3)c2)[nH]n1` [Example 70, N-(3-isopropoxy-1H-pyrazol-5-yl)-3-(pyrrolidin-1-ylsulfonyl)benzamide hydrochloride] the figure was 6.8 nM.
Take `CC(C)Oc1ccc(C(=O)NCCc2cccc(S(=O)(=O)N3CCCCC3)c2)cc1` [Example 161, 4-Isopropoxy-N-{2-[3-(piperidin-1-ylsulfonyl)phenyl]ethyl}benzamide]: the IC50 stood at 4800 nM.
With `O=C(Nc1cc(C2CC2)n[nH]1)c1cccc(S(=O)(=O)N2CCCC2)c1` [Example 115, N-(3-cyclopropyl-1H-pyrazol-5-yl)-3-(pyrrolidin-1-ylsulfonyl)benzamide] the figure was 310 nM; with `COc1ccc(NC(=O)c2cc(S(=O)(=O)N3CCCCC3)ccc2OC)cc1` [Example 149, 2-Methoxy-N-(4-methoxyphenyl)-5-(piperidin-1-ylsulfonyl)benzamide], 1000 nM.
As to `CC(C)Oc1cc(NC(=O)c2cccc(S(=O)(=O)N3CCCC3C)c2)[nH]n1` (centres unmarked) [Example 64, 3-Isopropoxy-5-({3-[(2-methylpyrrolidin-1-yl)sulfonyl]benzoyl}amino)-1H-pyrazole hydrochloride], inhibition was half-maximal at 5 nM (IC50).
`CC(C)Oc1ccc(NC(=O)c2cccc(S(=O)(=O)N3CCCC(F)(F)C3)c2)cc1` [Example 19, 3-[(3,3-Difluoropiperidin-1-yl)sulfonyl]-N-(4-isopropoxyphenyl)benzamide]: the IC50 was 1500 nM.
Under `CC(O)c1ccc(NC(=O)c2cccc(S(=O)(=O)N3CCCCC3)c2)cc1` (centres unmarked) [Example 93, N-[4-(1-hydroxyethyl)phenyl]-3-(piperidin-1-ylsulfonyl)benzamide] stands 1300 nM; under `CC(C)Oc1ccc(NC(=O)c2cccc(S(=O)(=O)N3C[C@@H]4C[C@H]3CN4C)c2)cc1` [Example 8, N-(4-isopropoxyphenyl)-3-{[(1S,4S)-5-methyl-2,5-diazabicyclo[2.2.1]hept-2-yl]sulfonyl}benzamide trifluoroacetate], 9600 nM.
Under `CC(C)c1ccc(NC(=O)c2cccc(S(=O)(=O)N3CCOCC3)c2)cc1` [Example 29, N-(4-isopropylphenyl)-3-(morpholin-4-ylsulfonyl)benzamide] stands 180 nM; under `COc1ccccc1NC(=O)c1cccc(S(=O)(=O)N2CCCC(C(N)=O)C2)c1` (centres unmarked) [Example 43, 1-[(3-{[(2-methoxyphenyl)amino]carbonyl]phenyl)sulfonyl}piperidine-3-carboxamide], 530 nM; under `CC(C)Oc1ccc(NC(=O)c2cccc(S(=O)(=O)c3ncccn3)c2)nc1` [Example 138, N-(5-isopropoxypyridin-2-yl)-3-(pyrimidin-2-ylsulfonyl)benzamide], 240 nM.
Compound `CC(C)Oc1ccc(NC(=O)c2cccc(S(=O)(=O)N3CCCC(OCc4cccnc4)C3)c2)cc1` (centres unmarked) [Example 20, N-(4-isopropoxyphenyl)-3-{[3-(pyridin-3-ylmethoxy)piperidin-1-yl]sulfonyl}benzamide trifluoroacetate] returned an IC50 of 530 nM.
With `COc1cccnc1NC(=O)c1cccc(S(=O)(=O)N2CCC[C@@H]2C)c1` [Example 48, N-(3-methoxypyridin-2-yl)-3-{[(2S)-2-methylpyrrolidin-1-yl]sulfonyl}benzamide] the figure was 210 nM.
The compound `COc1ccccc1NC(=O)c1cccc(S(=O)(=O)N2CCCCC2)c1` [Example 80, N-(2-methoxyphenyl)-3-(piperidin-1-ylsulfonyl)benzamide] came in with an IC50 of 44 nM.
In the case of `COCC(C)Oc1ccc(NC(=O)c2cccc(S(=O)(=O)c3ccccn3)c2)c(F)c1` (centres unmarked) [Example 123, N-[2-fluoro-4-(2-methoxy-1-methylethoxy)phenyl]-3-(pyridin-2-ylsulfonyl)benzamide], half-maximal inhibition (IC50) required 2700 nM.
Under `CC(C)Oc1ccc(NC(=O)c2cccc(S(=O)(=O)N3CC4CC5CC(C4)CC3C5)c2)cc1` [Example 4, 3-(4-Azatricyclo[4.3.1.1^3,8]undec-4-ylsulfonyl)-N-(4-isopropoxyphenyl)benzamide] stands 5100 nM; under `COc1cccc(NC(=O)c2cccc(S(=O)(=O)N3CCCCC3)c2)c1` [Example 81, N-(3-methoxyphenyl)-3-(piperidin-1-ylsulfonyl)benzamide], 1900 nM.
With `CC(C)c1ccc(NC(=O)c2cccc(S(=O)(=O)c3ccccc3)n2)cc1` [Example 157, N-(4-isopropylphenyl)-6-(phenylsulfonyl)pyridine-2-carboxamide] the figure was 1400 nM; with `CC(C)Oc1ccc(NC(=O)c2cccc(S(=O)(=O)c3cn[nH]c3)c2)cc1` [Example 143, N-(4-isopropoxyphenyl)-3-(1H-pyrazol-4-ylsulfonyl)benzamide], 4500 nM.
`COc1cc(-c2ccccc2)cnc1NC(=O)c1cccc(S(=O)(=O)N2CCCC2)c1` [Example 109, N-(3-methoxy-5-phenylpyridin-2-yl)-3-(pyrrolidin-1-ylsulfonyl)benzamide] came in with an IC50 of 3200 nM.
As for `CC(C)Oc1ccc(NC(=O)c2cccc(S(=O)(=O)c3ccccn3)c2)c(F)c1` [Example 126, N-(2-fluoro-4-isopropoxyphenyl)-3-(pyridin-2-ylsulfonyl)benzamide], the IC50 is 150 nM.

Broadly, the IC50 is the point on the concentration scale where inhibition reaches its midpoint. A lower IC50 goes with inhibition by little substance.

The values are drawn from patent US8420823B2, “Long-chain fatty acyl elongase inhibitor comprising arylsulfonyl derivative as active ingredient” (MSD K.K., priority 2008, dated 2013).
